Reference: patent publication US12617870B2, “Methods of reversing ticagrelor activity” (SFJ Pharmaceuticals X, LTD., priority 2018, dated 2026)
Where “and” joins values, the source holds several entries; their conditions need not be identical. Equal values may be shown once.

Columns and labels:
[1] = system: PB2452 binding to biotinylated ticagrelor; assay: Selectivity: competition binding with PB2452 to biotinylated ticagrelor; set-up: species or system human
Experimental: The chemical starting point for the development of ticagrelor was adenosine triphosphate (ATP), and ticagrelor retains an adenosine-like core. To confirm the specificity of PB2452 for ticagrelor and ticagrelor active metabolite (TAM), its binding to ATP, ADP, and adenosine was evaluated. […] The selectivity of PB2452 was determined by competition binding with PB2452 to biotinylated ticagrelor.

[2] = PLATO, cited from earlier work; for patients with fatal or life-threatening major bleeding events: patients with ACS, both treatment groups
[3] = system: platelet aggregation (ticagrelor antiplatelet activity); format: in vivo, human; details: placebo subjects
Experimental: Platelet function was assessed using light transmission aggregometry (LTA), VerifyNow, and vasodilator stimulated phosphoprotein (VASP) assays before and after 48 hours of ticagrelor administration […] Cohorts 7 to 10 received an 18-gram fixed dose of PB2452 via various infusion regimens or placebo. Infusions of PB2452 in these cohorts were initiated 2 hours after the last ticagrelor pretreatment dose to coincide with the peak concentration of ticagrelor. (Gurbel (2009). Subjects in all cohorts were randomized in a 3:1 ratio to receive PB2452 or placebo. The primary efficacy outcome was the effectiveness of PB2452 in reversing the antiplatelet effect of ticagrelor by analyzing platelet aggregation using light transmission aggregometry at multiple time points before and after PB2452 or placebo administration in ticagrelor pretreated subjects. Secondary efficacy outcomes were the effectiveness of ticagrelor reversal assessed using VerifyNow and the vasodilator stimulated phosphoprotein phosphorylation immunoassay (VASP). The sample size of 64 was based on clinical and practical considerations and not on a formal statistical power calculation. The sample size was considered sufficient to adequately assess the safety, efficacy, and pharmacokinetic profiles of PB2452 and the pharmacokinetic and pharmacodynamic profiles of ticagrelor. Reversal of antiplatelet effect was evaluated by comparing the mean percent of baseline platelet aggregation between PB2452 and placebo using Wilcoxon rank-sum test. Multiplicity was adjusted using the Bonferroni method. Correlations between each pair of the platelet function tests were evaluated using Pearson's correlation and Spearman's rank correlation coefficient. Mean data from subjects receiving placebo were pooled across cohorts for all presentations. Categorical variables are summarized by their frequencies and percentages, and continuous variables are presented with the number of subjects with non-missing data, mean, standard deviation, median, minimum, and maximum. Descriptive statistics are presented for each cohort, and pooled placebo and PB2452 data. For pharmacodynamic data, platelet aggregation results were compared between each cohort and pooled placebo data (cohorts 4 to 6 and cohort 7 to 10 were pooled separately). All analyses were performed with SAS software, version 9.4 (SAS Institute).

[4] = Phase 1 healthy volunteer study: pharmacokinetics of total ticagrelor; format: in vivo, human
Experimental: Plasma samples for determining total concentration of ticagrelor and its active metabolite, TAM (or ARC-124910XX) will be collected from subjects in Cohorts 4 through 10 before dosing (within 10 minutes prior to the initiation of the study drug infusion [Hour 0], and up to 48 hours following the initiation of study drug infusion. Specific collection times for each cohort are listed in the table below: […]

SMILES | inhibition of PB2452 binding to biotinylated ticagrelor [1] | other results
Nc1ncnc2c1ncn2[C@@H]1O[C@H](COP(=O)(O)OP(=O)(O)O)[C@@H](O)[C@H]1O [ADP, adenosine diphosphate] | No inhibition | –
Nc1ncnc2c1ncn2[C@@H]1O[C@H](COP(=O)(O)OP(=O)(O)OP(=O)(O)O)[C@@H](O)[C@H]1O [ATP, adenosine triphosphate] | No inhibition | –
Nc1ncnc2c1ncn2[C@@H]1O[C@H](CO)[C@@H](O)[C@H]1O [adenosine] | No inhibition | –
CCCC(=O)Nc1ncnc2c1ncn2[C@@H]1O[C@@H]2COP(=O)(O)O[C@H]2[C@H]1OC(=O)CCC [bucladesine] | No inhibition | –
CSCCNc1nc(SCCC(F)(F)F)nc2c1ncn2[C@@H]1O[C@H](COP(=O)(O)OP(=O)(O)C(Cl)(Cl)P(=O)(O)O)[C@@H](O)[C@H]1O [cangrelor] | No inhibition | –
O=C1CCc2cc(OCCCCc3nnnn3C3CCCCC3)ccc2N1 [cilostazol] | No inhibition | –
COC(=O)[C@H](c1ccccc1Cl)N1CCc2sccc2C1 [clopidogrel] | – | patients with fatal or life-threatening major bleeding events [2]: 5.8%
NS(=O)(=O)c1cc2c(cc1Cl)NC(C1CC3C=CC1C3)NS2(=O)=O (centres unmarked) [cyclothiazide] | No inhibition | –
CC1(C)C(C=C(Cl)Cl)C1C(=O)OC(C#N)c1ccc(F)c(Oc2ccccc2)c1 (centres unmarked) [cyfluthrin] | No inhibition | –
CC(=O)NC[C@H]1CN(c2ccc(N3CCOCC3)c(F)c2)C(=O)O1 [linezolid] | No inhibition | –
CC[C@H](C)C(=O)O[C@H]1C[C@@H](C)C=C2C=C[C@H](C)[C@H](CC[C@@H]3C[C@@H](O)CC(=O)O3)[C@H]21 [lovastatin] | No inhibition | –
COC(=O)C1=C(C#N)NC(C)=C(C(=O)OC(C)C)C1c1cccc([N+](=O)[O-])c1 (centres unmarked) [nilvadipine] | No inhibition | –
CNC(=O)c1cnn(-c2nc(N)c3ncn([C@@H]4O[C@H](CO)[C@@H](O)[C@H]4O)c3n2)c1 [regadenoson] | No inhibition | –
CCCSc1nc(N[C@@H]2C[C@H]2c2ccc(F)c(F)c2)c2nnn([C@@H]3C[C@H](OCCO)[C@@H](O)[C@H]3O)c2n1 [ticagrelor, (1S,2S,3R,5S)-3-[7-{[(1R,2S)-2-(3,4-difluorophenyl)cyclopropyl]amino}-5-(propylthio)-3H-[1,2,3]triazolo[4,5-d]pyrimidin-3-yl]-5-(2-hydroxyethoxy)cyclopentane-1,2-diol] | – | patients with fatal or life-threatening major bleeding events [2]: 5.8%; patients with fatal or life-threatening bleeding event ([2]; urgent surgery, could not wait three days for ticagrelor to wash out): approximately 50%; patients with major bleeding related to procedures like CABG [2]: approximately 9%; patients with spontaneous major bleeding events not related to any medical procedure [2]: approximately 3%; suppression of platelet aggregation ([3]; after 48 hours of ticagrelor (180 mg loading + 90 mg twice daily)): ~80% and 80-85%; platelet aggregation remained suppressed after ticagrelor was stopped [3]: 24 h; increase of mean ticagrelor concentrations compared with ticagrelor alone ([4]; PB2452 18 gram dose level with 8- to 16-hour infusions): 5.6 fold; increase of mean concentration of circulating ticagrelor ([4]; in the presence of PB2452 (Cohorts 4-6, FIG. 11B)): 2-5.6 fold; time of peak total ticagrelor concentration after an oral dose ([4]; subjects receiving ticagrelor alone): approximately 2 hours; peak total ticagrelor concentration ([4]; subjects receiving ticagrelor alone, oral dose): 900 ng/mL
